# “And” between values parts separate entries of the source, which are not always exact repeats. Equal values may be shown once.
# Experiments:
# Assay in all cases: Lysyl oxidase enzymatic activity, fluorescence-based assay, IC50
# Format in all cases: biochemical
# [1] = biological target: T1, Recombinant LOXL-3 (Homo sapiens, UniProt P58215)
# T1 sequence (P58215 26-753): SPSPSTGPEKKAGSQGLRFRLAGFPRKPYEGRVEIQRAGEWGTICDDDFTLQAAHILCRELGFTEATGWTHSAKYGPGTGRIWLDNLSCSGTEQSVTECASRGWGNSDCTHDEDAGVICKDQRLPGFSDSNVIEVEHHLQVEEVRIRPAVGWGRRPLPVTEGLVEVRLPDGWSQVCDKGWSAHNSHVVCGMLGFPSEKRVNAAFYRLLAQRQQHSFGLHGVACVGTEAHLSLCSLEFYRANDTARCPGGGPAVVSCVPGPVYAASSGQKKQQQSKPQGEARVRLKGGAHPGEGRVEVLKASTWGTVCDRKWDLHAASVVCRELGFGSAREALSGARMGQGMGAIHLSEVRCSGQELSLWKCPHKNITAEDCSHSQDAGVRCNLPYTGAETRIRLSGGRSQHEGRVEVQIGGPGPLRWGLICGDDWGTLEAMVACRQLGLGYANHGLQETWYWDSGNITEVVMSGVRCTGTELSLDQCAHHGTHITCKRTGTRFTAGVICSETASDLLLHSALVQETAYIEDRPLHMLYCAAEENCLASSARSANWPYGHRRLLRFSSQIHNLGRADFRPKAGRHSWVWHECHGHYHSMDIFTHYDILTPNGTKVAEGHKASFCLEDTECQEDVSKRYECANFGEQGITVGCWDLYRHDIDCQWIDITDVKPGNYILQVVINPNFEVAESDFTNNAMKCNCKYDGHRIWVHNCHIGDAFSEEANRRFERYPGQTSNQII
# Excerpt: (§1) Data are presented as mean ± s.d. […] Data presented as mean ± s.d. […] Source data TEXT PRINTED IN THE PICTURE: (b) PXS-5505: Recombinant DAO IC50 (nM): >30,000; Recombinant SSAO/VAP1 IC50 (nM): >30,000; Recombinant MAO-A IC50 (nM): >30,000; Recombinant MAO-B IC50 (nM): >30,000 | (f) PXS-5505: Fibroblast LOX IC50 (nM): 4,930; Recombinant LOXL-1 IC50 (nM): 1,590; Recombinant LOXL-2 IC50 (nM): 570; Recombinant LOXL-3 IC50 (nM): 1,800; Recombinant LOXL-4 IC50 (nM): 190
# (§2) In characterizing PXS-5505, the half-maximum inhibitory concentration (IC50) values for each of the lysyl oxidase family members were determined by measuring enzymatic activity using a fluorescence-based assay.
# (§3) Data presented as mean values +/− SD. f. […] Data presented as mean values +/− SD. […] Data presented as mean values +/− SD. […] Data presented as mean values +/− SD. Ordinary one-way ANOVA for multiple comparison test performed. Source data
# [2] = biological target: T2, Fibroblast LOX (Homo sapiens, UniProt P28300)
# T2 construct: endogenous in cells
# T2 sequence (P28300 169-417): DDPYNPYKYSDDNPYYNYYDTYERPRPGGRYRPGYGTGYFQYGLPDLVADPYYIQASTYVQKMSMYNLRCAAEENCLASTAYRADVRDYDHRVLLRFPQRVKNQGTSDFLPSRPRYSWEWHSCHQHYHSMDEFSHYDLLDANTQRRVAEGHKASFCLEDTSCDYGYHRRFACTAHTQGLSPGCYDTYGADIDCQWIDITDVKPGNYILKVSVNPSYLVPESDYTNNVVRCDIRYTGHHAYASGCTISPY
# Excerpt: as §1, §2, §3
# [3] = biological target: T3, Recombinant LOXL-4 (Homo sapiens, UniProt Q96JB6)
# T3 sequence (Q96JB6 25-756): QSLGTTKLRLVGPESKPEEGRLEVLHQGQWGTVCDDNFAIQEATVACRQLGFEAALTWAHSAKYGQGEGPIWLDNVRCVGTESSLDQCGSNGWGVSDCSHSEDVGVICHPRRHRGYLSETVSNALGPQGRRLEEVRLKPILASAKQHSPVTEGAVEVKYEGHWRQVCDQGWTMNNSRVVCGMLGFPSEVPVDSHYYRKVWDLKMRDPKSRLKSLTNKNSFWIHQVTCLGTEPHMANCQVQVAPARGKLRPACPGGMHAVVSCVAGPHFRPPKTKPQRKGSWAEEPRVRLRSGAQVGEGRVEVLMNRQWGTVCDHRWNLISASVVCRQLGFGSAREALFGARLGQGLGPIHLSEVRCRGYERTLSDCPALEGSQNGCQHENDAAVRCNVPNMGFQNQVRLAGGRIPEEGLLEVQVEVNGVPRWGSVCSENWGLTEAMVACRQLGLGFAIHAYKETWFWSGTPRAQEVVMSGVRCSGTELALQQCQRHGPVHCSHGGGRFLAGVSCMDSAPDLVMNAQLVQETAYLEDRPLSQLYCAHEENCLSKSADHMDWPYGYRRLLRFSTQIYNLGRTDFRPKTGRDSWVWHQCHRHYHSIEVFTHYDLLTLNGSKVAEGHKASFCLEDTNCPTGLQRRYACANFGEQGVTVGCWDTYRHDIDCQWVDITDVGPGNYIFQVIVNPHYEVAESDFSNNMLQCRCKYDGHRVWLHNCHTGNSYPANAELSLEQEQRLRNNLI
# Excerpt: as §1, §2, §3
# [4] = log(Concentration) -4.52288, replicates, 30 µM
# [5] = log(Concentration) -5, replicates, 10 µM
# [6] = log(Concentration) -5.47712, replicates, 3.333 µM
# [7] = log(Concentration) -5.95424, replicates, 1.111 µM
# [8] = log(Concentration) -6.43136, replicates, 0.3704 µM
# [9] = log(Concentration) -6.90849, replicates, 0.1235 µM
# [10] = log(Concentration) -7.38561, replicates, 0.04115 µM
# [11] = log(Concentration) -7.86273, replicates, 0.01372 µM
# [12] = log(Concentration) -8.33985, replicates, 0.004572 µM
# [13] = log(Concentration) -8.81697, replicates, 0.001524 µM
# [14] = log(Concentration) -9.29409, replicates, 0.000508 µM
smiles,measurement,setting,value
"Cl.Cl.NC/C=C(\F)CS(=O)(=O)c1cccc2cccnc12.O [PXS-5505, (Z)-3-fluoro-4-(quinolin-8-ylsulfonyl)but-2-en-1-amine dihydrochloride monohydrate]",IC50,[1],1800 nM
same,"LOXL3 activity, IC50 determination curve",[1]; [4],0.995 and -0.1448 and -2.1827
same,"LOXL3 activity, IC50 determination curve",[1]; [5],5.702
same,"LOXL3 activity, IC50 determination curve",[1]; [6],36.152 and 26.2163
same,"LOXL3 activity, IC50 determination curve",[1]; [7],67.7528 and 54.7261
same,"LOXL3 activity, IC50 determination curve",[1]; [8],85.8582 and 75.7761
same,"LOXL3 activity, IC50 determination curve",[1]; [9],94.2403 and 83.1634
same,"LOXL3 activity, IC50 determination curve",[1]; [10],97.9203 and 84.9527
same,"LOXL3 activity, IC50 determination curve",[1]; [11],99.768 and 85.7835
same,"LOXL3 activity, IC50 determination curve",[1]; [12],101.158 and 89.5879
same,"LOXL3 activity, IC50 determination curve",[1]; [13],100.452 and 87.3896
same,"LOXL3 activity, IC50 determination curve",[1]; [14],100.732 and 88.8381
same,activity at 10 µM,"[1]; read-out: LOXL3 activity, IC50 determination curve, log(Concentration) -5, replicates",7.74%
same,activity at 3.333 µM,"[1]; read-out: LOXL3 activity, IC50 determination curve, log(Concentration) -5.47712, replicates",30.5%
same,activity at 1.111 µM,"[1]; read-out: LOXL3 activity, IC50 determination curve, log(Concentration) -5.95424, replicates",62.6%
same,activity at 0.3704 µM,"[1]; read-out: LOXL3 activity, IC50 determination curve, log(Concentration) -6.43136, replicates",82.5%
same,activity at 0.1235 µM,"[1]; read-out: LOXL3 activity, IC50 determination curve, log(Concentration) -6.90849, replicates",98.2%
same,activity at 0.04115 µM,"[1]; read-out: LOXL3 activity, IC50 determination curve, log(Concentration) -7.38561, replicates",96.9%
same,activity at 0.01372 µM,"[1]; read-out: LOXL3 activity, IC50 determination curve, log(Concentration) -7.86273, replicates",96.8%
same,activity at 0.004572 µM,"[1]; read-out: LOXL3 activity, IC50 determination curve, log(Concentration) -8.33985, replicates",99.1%
same,activity at 0.001524 µM,"[1]; read-out: LOXL3 activity, IC50 determination curve, log(Concentration) -8.81697, replicates",100%
same,activity at 0.000508 µM,"[1]; read-out: LOXL3 activity, IC50 determination curve, log(Concentration) -9.29409, replicates",99.7%
same,IC50,[2],4930 nM
same,"LOX activity, IC50 determination curve",[2]; [4],-1.8303 and 0.6579 and 0.3247
same,"LOX activity, IC50 determination curve",[2]; [5],3.883 and 10.1684 and 20.9265 and 5.02 and 4.758 and 6.391 and 6.186 and 6.029 and 20.5369 and 17.2584 and 29.8226 and 3.623 and 26.5163 and 8.055 and 5.279 and 6.036 and 3.683 and 8.994 and 2.62 and 5.888
same,"LOX activity, IC50 determination curve",[2]; [6],26.3616 and 38.5547 and 37.4589 and 30.4803 and 26.5908 and 26.0097 and 25.4086 and 23.2841 and 47.0211 and 41.5569 and 54.9662 and 30.9927 and 55.9602 and 33.6452 and 26.0055 and 25.2076 and 21.7888 and 33.3569 and 26.6311 and 45.3445
same,"LOX activity, IC50 determination curve",[2]; [7],65.9487 and 69.3911 and 60.7313 and 65.7321 and 64.7348 and 60.684 and 73.4741 and 69.7585 and 72.3228 and 61.8434 and 76.5191 and 70.4394 and 64.4999 and 59.1047 and 54.3417 and 66.355 and 58.9798 and 55.4122
same,"LOX activity, IC50 determination curve",[2]; [8],87.2177 and 88.3395 and 79.2811 and 66.9609 and 65.4146 and 85.3577 and 83.5816 and 83.3016 and 85.8139 and 85.7077 and 63.7427 and 87.2402 and 81.0139 and 93.5693 and 81.2357 and 80.2494 and 78.0142 and 85.6866 and 82.1322 and 88.2018
same,"LOX activity, IC50 determination curve",[2]; [9],96.5523 and 90.6919 and 85.8494 and 82.293 and 94.8665 and 94.3951 and 93.9784 and 95.943 and 87.9121 and 85.7594 and 95.8669 and 88.1459 and 102.086 and 95.1473 and 93.948 and 87.9189 and 98.6889 and 90.9023 and 91.7994
same,activity at 0.1235 µM,"[2]; read-out: LOX activity, IC50 determination curve, log(Concentration) -6.90849, replicates",99.8%
same,activity at 0.01372 µM,"[2]; read-out: LOX activity, IC50 determination curve, log(Concentration) -7.86273, replicates",104%
same,activity at 0.004572 µM,"[2]; read-out: LOX activity, IC50 determination curve, log(Concentration) -8.33985, replicates",102%
same,activity at 0.001524 µM,"[2]; read-out: LOX activity, IC50 determination curve, log(Concentration) -8.81697, replicates",108%
same,activity at 0.000508 µM,"[2]; read-out: LOX activity, IC50 determination curve, log(Concentration) -9.29409, replicates",105%
same,IC50,[3],190 nM
same,"LOXL4 activity, IC50 determination curve",[3]; [4],-2.4007 and -2.8906 and -3.2101 and -2.6712
same,"LOXL4 activity, IC50 determination curve",[3]; [5],-1.4422 and -2.1664 and -2.1983 and -2.2521
same,"LOXL4 activity, IC50 determination curve",[3]; [6],0.2192 and -0.9736 and -1.1972 and -0.2715
same,"LOXL4 activity, IC50 determination curve",[3]; [7],5.544 and 5.363 and 4.947
same,"LOXL4 activity, IC50 determination curve",[3]; [8],33.33 and 26.333 and 28.4205
same,"LOXL4 activity, IC50 determination curve",[3]; [9],72.8948 and 68.0171 and 53.7035 and 49.075
same,"LOXL4 activity, IC50 determination curve",[3]; [10],94.28 and 92.9061 and 89.562 and 72.7789
same,"LOXL4 activity, IC50 determination curve",[3]; [11],99.5304 and 98.9021 and 84.3689
same,"LOXL4 activity, IC50 determination curve",[3]; [12],103.556 and 102.033 and 92.1549
same,"LOXL4 activity, IC50 determination curve",[3]; [13],95.8121
same,"LOXL4 activity, IC50 determination curve",[3]; [14],96.0112
same,activity at 1.111 µM,"[3]; read-out: LOXL4 activity, IC50 determination curve, log(Concentration) -5.95424, replicates",6.34%
same,activity at 0.3704 µM,"[3]; read-out: LOXL4 activity, IC50 determination curve, log(Concentration) -6.43136, replicates",39.8%
same,activity at 0.01372 µM,"[3]; read-out: LOXL4 activity, IC50 determination curve, log(Concentration) -7.86273, replicates",101%
same,activity at 0.004572 µM,"[3]; read-out: LOXL4 activity, IC50 determination curve, log(Concentration) -8.33985, replicates",106%
same,activity at 0.001524 µM,"[3]; read-out: LOXL4 activity, IC50 determination curve, log(Concentration) -8.81697, replicates",104%
same,activity at 0.000508 µM,"[3]; read-out: LOXL4 activity, IC50 determination curve, log(Concentration) -9.29409, replicates",105%

# From publication PMC10518255, “A first-in-class pan-lysyl oxidase inhibitor impairs stromal remodeling and enhances gemcitabine response and survival in pancreatic cancer” (Nature Cancer, 2023)
